Assay [1] has as its target T1, full-length human CSF-1R receptor (Homo sapiens, UniProt P07333).
T1 construct: transfected with the full-length human CSF-1R receptor cloned in house; expressed in transfected cells; host or cells: HEK293H (Invitrogen Cat. #11631017)
The assay is described as follows: In vitro inhibition of CSF-1R receptor tyrosine phosphorylation in transfected HEK293H cells stimulated with MCSF. It is filed as cell-based. The conditions noted are these: HEK293-H, tested at about 1 μM, read-out: pCSF1R percent inhibition. On the procedure: The lysate was then transferred to total CSF-1R antibody coated 96-well plates that had already been blocked with 3% Blocker A from Mesoscale discovery (MSD) for 2 hours and washed afterwards. Lysates were incubated overnight at 4° C. and the plates were then washed 4× with MSD Tris Wash Buffer. […] The plates were read on the Sector 6000 instrument (MSD). Raw data was imported in Abase and EC50s calculated with XL-fit data analysis software.

A further assay deals with T2, kinase domain of cKIT (Homo sapiens, UniProt P10721).
T2 construct: The kinase domain of cKIT was assayed in 50 mM Hepes; purchased Upstate 14-559
Put plainly: Inhibition of cKIT kinase signaling in an in vitro biochemical assay (alphascreen). The conditions noted are these: tested at about 1 μM, read-out: cKit percent inhibition. On the technique in general: In Alpha technology, singlet oxygen from a donor bead excites a nearby acceptor bead.

A further assay deals with T3, kinase domain of PDGFRβ (Homo sapiens, UniProt P09619).
T3 construct: The kinase domain of PDGFRβ was assayed in 50 mM Hepes; purchased Invitrogen P3082
Put plainly: Inhibition of PDGFRb kinase signaling in an in vitro biochemical assay (alphascreen). As to conditions: tested at about 1 μM, read-out: PDGFRβ percent inhibition.

The target in assay [2] is T4, cytoplasmic domain of the human CSF-1R (Homo sapiens, UniProt P07333).
T4 construct: Recombinant protein corresponding to the cytoplasmic domain of the human CSF-1R; purchased Invitrogen Corporation, Carlsbad, Calif; PV3249
T4 sequence (P07333 539-972 limits assumed): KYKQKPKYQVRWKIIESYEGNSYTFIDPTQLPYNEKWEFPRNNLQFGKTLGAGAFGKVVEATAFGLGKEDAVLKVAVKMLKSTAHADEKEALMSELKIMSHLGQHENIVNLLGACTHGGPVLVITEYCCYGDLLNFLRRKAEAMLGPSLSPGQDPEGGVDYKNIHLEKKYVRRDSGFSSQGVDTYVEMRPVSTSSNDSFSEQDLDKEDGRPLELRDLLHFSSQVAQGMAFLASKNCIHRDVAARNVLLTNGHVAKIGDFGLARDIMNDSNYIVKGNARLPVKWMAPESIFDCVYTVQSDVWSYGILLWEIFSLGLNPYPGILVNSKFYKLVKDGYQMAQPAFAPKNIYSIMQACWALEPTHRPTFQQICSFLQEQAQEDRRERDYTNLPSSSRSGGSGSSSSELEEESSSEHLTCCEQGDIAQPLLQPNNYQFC
The assay is described as follows: In vitro kinase assay for colony stimulating factor-1 receptor (AlphaScreen). Type of assay: biochemical. The conditions noted are these: tested at about 1 μM, read-out: CSF-1R percent inhibition. In a few lines:
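Tyrosine phosphorylation of a peptide substrate by 4 nM recombinant cytoplasmic-domain enzyme is measured at 1 μM ATP in Mn2+/Mg2+-containing Hepes buffer, pH 7.5. Detection uses PT66 AlphaScreen beads after overnight incubation.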

The test system of assay [3] is MNFS60 (murine AML cells). The assay is described as follows: Cell viability assay in MCSF dependent MNFS60 cells (Cell Titer Glo). Type of assay: cell-based. The conditions noted are these: Mus musculus, tested at about 1 μM, read-out: M-NFS-60 CP percent inhibition. Put shortly:
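Compounds were serially diluted 3-fold in DMSO to 500× final and added to cells with MCSF at 10 ng/ml final. After 72 hrs at 37° C. under 5% CO2, viable cells were quantified by CellTiter-Glo luminescence; triplicate wells gave EC50 values by curve fitting.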

Among the data in US8173689B2 (Novartis AG, priority 2006, dated 2012) are inhibition values, retold here.

Like-named read-outs stand apart in the source and are kept apart here.

T2 sequence (P10721 589-937 limits assumed): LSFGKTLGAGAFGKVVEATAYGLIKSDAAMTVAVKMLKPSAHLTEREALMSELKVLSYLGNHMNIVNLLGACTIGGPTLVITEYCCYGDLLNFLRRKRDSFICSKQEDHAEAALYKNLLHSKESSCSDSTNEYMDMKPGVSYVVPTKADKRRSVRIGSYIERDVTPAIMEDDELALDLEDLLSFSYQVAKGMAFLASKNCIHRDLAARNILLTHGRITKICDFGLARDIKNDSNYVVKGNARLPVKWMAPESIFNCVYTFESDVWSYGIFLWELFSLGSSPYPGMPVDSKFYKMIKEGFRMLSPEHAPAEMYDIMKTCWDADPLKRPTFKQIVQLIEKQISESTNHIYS
T1 sequence (P07333 20-972): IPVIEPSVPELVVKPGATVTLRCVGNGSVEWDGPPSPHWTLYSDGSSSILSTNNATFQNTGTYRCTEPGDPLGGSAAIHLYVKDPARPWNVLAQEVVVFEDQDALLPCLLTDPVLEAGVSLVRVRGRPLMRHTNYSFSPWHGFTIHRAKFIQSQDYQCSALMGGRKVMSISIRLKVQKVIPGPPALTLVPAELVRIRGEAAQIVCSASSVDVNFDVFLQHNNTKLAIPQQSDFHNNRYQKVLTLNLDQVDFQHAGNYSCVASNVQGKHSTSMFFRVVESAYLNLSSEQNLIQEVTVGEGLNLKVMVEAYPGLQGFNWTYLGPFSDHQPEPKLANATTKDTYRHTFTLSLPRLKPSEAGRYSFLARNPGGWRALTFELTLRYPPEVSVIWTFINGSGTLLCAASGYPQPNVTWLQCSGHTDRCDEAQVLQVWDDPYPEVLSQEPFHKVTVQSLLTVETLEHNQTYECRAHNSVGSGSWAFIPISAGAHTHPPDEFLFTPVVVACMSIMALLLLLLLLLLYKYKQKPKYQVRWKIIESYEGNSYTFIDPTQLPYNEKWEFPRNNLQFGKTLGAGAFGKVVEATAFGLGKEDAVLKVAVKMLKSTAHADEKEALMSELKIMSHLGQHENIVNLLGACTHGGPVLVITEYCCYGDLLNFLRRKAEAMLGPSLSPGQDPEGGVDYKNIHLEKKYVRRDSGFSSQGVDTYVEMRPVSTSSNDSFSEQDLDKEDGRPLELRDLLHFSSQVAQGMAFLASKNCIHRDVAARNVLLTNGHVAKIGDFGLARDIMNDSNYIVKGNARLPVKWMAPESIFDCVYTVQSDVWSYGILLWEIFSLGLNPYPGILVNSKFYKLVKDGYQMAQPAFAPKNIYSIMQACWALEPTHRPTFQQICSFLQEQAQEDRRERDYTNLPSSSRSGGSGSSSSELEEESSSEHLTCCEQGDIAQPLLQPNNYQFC
T3 sequence (P09619 600-962 limits assumed): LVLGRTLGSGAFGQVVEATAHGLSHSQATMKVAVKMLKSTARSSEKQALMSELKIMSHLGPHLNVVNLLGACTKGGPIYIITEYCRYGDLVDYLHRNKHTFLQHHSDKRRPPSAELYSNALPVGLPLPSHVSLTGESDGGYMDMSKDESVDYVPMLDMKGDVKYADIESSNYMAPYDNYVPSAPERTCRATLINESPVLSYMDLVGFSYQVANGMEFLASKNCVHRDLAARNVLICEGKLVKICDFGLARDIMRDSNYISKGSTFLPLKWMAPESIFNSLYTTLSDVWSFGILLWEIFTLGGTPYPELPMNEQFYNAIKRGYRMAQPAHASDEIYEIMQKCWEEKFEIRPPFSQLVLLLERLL

As to `O[C@@H]1CCCC[C@H]1Nc1nc2ccc(Oc3ccnc(-c4ccc(CN5CCOCC5)cc4)c3)cc2s1` [Cmpd 168, (1R,2R)-2-(6-(2-(4-(morpholinomethyl)phenyl)pyridin-4-yloxy)benzo[d]thiazol-2-ylamino)cyclohexanol], the inhibition – broadly, the percentage by which the read-out fell short of the control – at 1 µM in assay [1] (compounds of Table 3) worked out at 99%; on kinase domain of cKIT (compounds of Table 3), 40%; at kinase domain of PDGFRβ (compounds of Table 3), 43%; in assay [2] (compounds of Table 3) it was 100%; in assay [3] (compounds of Table 3), 100%.

As to `CNC(=O)c1cc(Oc2ccc3nc(Nc4ccccc4CCN4CCCCC4)oc3c2)ccn1` [Compound 44, 4-{2-[2-(2-Piperidin-1-yl-ethyl)-phenylamino]-benzooxazol-6-yloxy}-pyridine-2-carboxylic acid methylamide], the inhibition at 1 µM was found to be 99% in assay [1] (compounds of Table 3); 53% in assay [1] (compounds of Table 4); 87% on kinase domain of cKIT (compounds of Table 3); 45% at kinase domain of cKIT (compounds of Table 4); 98% on kinase domain of PDGFRβ (compounds of Table 3); 24% on kinase domain of PDGFRβ (compounds of Table 4). In addition, the inhibition at 1 µM is 15% on kinase domain of PDGFRβ; 100% in assay [2] (compounds of Table 3); 100% in assay [2] (compounds of Table 4); 37% in assay [2]; 100% in assay [3] (compounds of Table 3); 94% in assay [3] (compounds of Table 4).

On to `O[C@@H]1CCCC[C@H]1Nc1nc2ccc(Oc3ccnc(-c4ccnc(N5CCOCC5)c4F)c3)cc2s1` [Cmpd 172, (1R,2R)-2-(6-(3'-fluoro-2'-morpholino-2,4'-bipyridin-4-yloxy)benzo[d]thiazol-2-ylamino)cyclohexanol], for which the inhibition at 1 µM was 97% in assay [1] (compounds of Table 3); 22% at kinase domain of cKIT (compounds of Table 3); 18% at kinase domain of PDGFRβ (compounds of Table 3); 100% in assay [2] (compounds of Table 3); 100% in assay [3] (compounds of Table 3).

Turning to `CNC(=O)c1cc(Oc2ccc3nc(N[C@H]4CCCN(S(=O)(=O)C5CC5)C4)sc3c2)ccn1` [Example 367, (S)-4-(2-(1-(cyclopropylsulfonyl)piperidin-3-ylamino)benzo[d]thiazol-6-yloxy)-N-methylpicolinamide], the inhibition at 1 µM in assay [1] (HEK293H cells) came out at 89%; on kinase domain of cKIT, 13%; at kinase domain of PDGFRβ, 7%; in assay [2], 100%; in assay [3] (MCSF dependent MNFS60 cells), 81%.

For the compound `CNC(=O)c1cc(Oc2ccc3nc(N[C@@H](C)c4ccccc4OC)sc3c2)ccn1` [Example 328, (S)-4-(2-(1-(2-methoxyphenyl)ethylamino)benzo[d]thiazol-6-yloxy)-N-methylpicolinamide], the inhibition at 1 µM was 80% in assay [1] (HEK293H cells); 14% at kinase domain of cKIT; 0% on kinase domain of PDGFRβ; 100% in assay [2]; 63% in assay [3] (MCSF dependent MNFS60 cells).

Regarding `O[C@@H]1CCCC[C@H]1Nc1nc2ccc(Oc3ccnc(-c4ccnc(F)c4)c3)cc2s1` [Cmpd 171, (1R,2R)-2-(6-(2'-fluoro-2,4'-bipyridin-4-yloxy)benzo[d]thiazol-2-ylamino)cyclohexanol], the inhibition at 1 µM is 95% in assay [1] (compounds of Table 3); 25% at kinase domain of cKIT (compounds of Table 3); 18% on kinase domain of PDGFRβ (compounds of Table 3); 100% in assay [2] (compounds of Table 3); 96% in assay [3] (compounds of Table 3).

`CC(C)(C)[C@@H](CO)Nc1nc2ccc(Oc3ccnc4ccccc34)cc2s1` [Example 248, (S)-3,3-dimethyl-2-(6-(quinolin-4-yloxy)benzo[d]thiazol-2-ylamino)butan-1-ol]: the inhibition at 1 µM stood at 39% in assay [1] (compounds of Table 3); 33% at kinase domain of cKIT (compounds of Table 3); 41% at kinase domain of PDGFRβ (compounds of Table 3); 100% in assay [2] (compounds of Table 3); 51% in assay [3] (compounds of Table 3).

For `CNC(=O)c1cc(Oc2ccc3nc(NCc4cccc(F)c4F)oc3c2)ccn1` [Compound 79, 4-[2-(2,3-Difluoro-benzylamino)-benzooxazol-6-yloxy]-pyridine-2-carboxylic acid methylamide], the inhibition at 1 µM in assay [1] (HEK293H cells) was 94%; on kinase domain of cKIT it was 31%; on kinase domain of PDGFRβ, 0%; in assay [2] it was 100%; in assay [3] (MNFS60 cells) it was 57%.
